Measured values from patent US8399440B2, “Disease modifying anti-arthritic activity of 2-methoxyestradiol” (EntreMed, Inc., priority 2006, dated 2013).

Tested on: Arthrogen Collagen MAb-Induced Arthritis
Assay: Arthrogen collagen MAb-induced arthritis (Arthrogen-CIA model of RA)
Format: in vivo, Mouse (Balb/C)
Conditions: Study SMP05-046; either drug alone (2ME2 10 or 100 mg/kg/d PO; MTX 0.1 or 1 mg/kg/d IP)

Structure (SMILES): CN(Cc1cnc2nc(N)nc(N)c2n1)c1ccc(C(=O)N[C@@H](CCC(=O)O)C(=O)O)cc1 [MTX, methotrexate, reference compound]
- pathology in the liver: No pathology
